The values below are quoted from earlier work in patent publication US20230097323A1, “Method and Devices for Transdermal Delivery of Hydrogen Gas for Therapeutic Purposes” (Hyderm Innovations LLC, priority 2021, published 2023).

The conditions of series [1]: at ambient temperature.
The conditions of series [2]: transdermal supply, bag fitted snugly to the skin.

`[HH]` [hydrogen, Molecular hydrogen]: the “solubility of hydrogen in water” value in series [1] is “about 1.6 mg/l”. Also, in series [2], the “time until hydrogen concentration in the skin reaches a plateau” value is 40 to 60 min.
